# Experimental data reported in patent publication US8598383B2, “Pharmaceutical composition for treating or preventing degenerative and inflammatory diseases” (Neurotech Pharmaceuticals Co., Ltd., priority 2006, dated 2013).
# Key:
# BV2 microglia cell line = assay: Suppressing effect on production of NO (LPS, Griess reagent); assay type: cell-based; details: Mus musculus, BV-2, LPS-treated BV2 microglia, 24 hours incubation
# Protocol: Inhibiting effect of the 2-hydroxybenzoic acid derivative according to the present invention on NO, inflammatory factor intervening inflammation reaction was evaluated. BV2 microglia cell line was treated with lipopolysaccharide (LPS), a inflammation-inducing material of bacteria toxin, with inclusion of 10 uM, 30 uM or 100 uM of the present compound. After 24 hours of incubation, 50 ul of culture medium was collected in 96-well plate. Then, 50 ul of Griess reagent was added and incubated for 10 minutes at room temperature. The absorbance was evaluated by ELISA reader at 540 nm.
# [1] = system: collagen-induced arthritis; assay: Collagen-induced arthritis model (arthritic index); assay type: in vivo, mouse
# Protocol: FIG. 15 is results showing efficacy through arthritis animal model induced by collagen. 25 mg/kg of compound 2, 3 or 18, or methotrexate (control, MTX, 1 mg/kg/week) was intraperitoneally injected after administration of collagen.
# FIG. 16 is results showing efficacy of compounds 6 and 11 through arthritis animal model induced by collagen. Collagen was intradermally injected two times with 2 week-interval. One week later, compound 6, compound 11 and methotrexate (control) were intraperitoneally injected. Then, the animals were observed everyday for 2-3 weeks, and results was evaluated by arthritis index.
# To evaluate the efficacy of the 2-hydroxybenzoic acid derivative, collagen-induced arthritis model (rheumarthritis animal model) was used. Bovine type II collagen was mixed with complete Freund's adjuvant to make an emulsion, and the emulsion was intradermally injected into the origin site of 8˜10 week-old DBA/1LacJ mouse tail. Intradermal boosting was performed by the same method 2 weeks later. 25 mg/kg/day of compounds 2, 3 and 18, 1 mg/kg/week of methotrexate (comparative example) or 10% vehicle (control) were intraperitoneally injected one week after the second intradermal injection of collagen (FIG. 15). Pictures of foot edema of normal rat (sham), collagen-administered rat (collagen) and compound 18-administered rat (compound 18, 25 mg/kg/day injection) were shown in FIG. 14.
# In addition, 50 mg/kg/day of compounds 6 and 11, and 5 mg/kg/2 days of methotrexate (comparative example) were intraperitoneally injected. Phosphate buffered saline was injected as control (FIG. 16). For 2˜3 weeks, the degree of arthritis was observed everyday, and the result was evaluated according to the below arthritic index using edema.
# 4 paws were evaluated as from 0 to 4 point, Total points: 16
# [2] = system: iNOS gene expression in BV2 cell line; assay: Suppressing effect on gene expression (RT-PCR), iNOS; assay type: cell-based; details: Mus musculus, BV-2, 24 h, gene expression vs LPS control, BV2, 24 hours
# Protocol: (§1) Effects of the 2-hydroxybenzoic acid derivatives on iNOS gene expression in BV2 cell line were evaluated. 100 mm dish was inoculated with 1×10^6 cells of BV2 cell line, and treated with both LPS, inflammation-inducing material, and 1˜100 uM of the 2-hydroxybenzoic acid derivative of the present invention, together, in regular concentration interval. After 24 hours of incubation, RNA was extracted. Extracted RNA was used in reverse transcription and polymerase chain reaction, and expression patterns of TNF-alpha, IL-1beta and iNOS were compared.
# [3] = system: IL-1beta gene expression in BV2 cell line; assay: Suppressing effect on gene expression (RT-PCR), IL-1beta; assay type: cell-based; details: Mus musculus, BV-2, 24 h, gene expression vs LPS control, BV2, 24 hours
# Protocol: as §1
# [4] = system: TNF-alpha gene expression in BV2 cell line; assay: Suppressing effect on gene expression (RT-PCR), TNF-alpha; assay type: cell-based; details: gene expression vs LPS control, BV2, 24 hours; for inhibition at 100 µM: Mus musculus, BV-2, 24 h
# Protocol: as §1
# [5] = Single-dose toxicity test; assay type: in vivo
# Protocol: FIG. 32 is results of single dose toxicity testing of some 2-hydroxybenzoic acid derivatives according to the present invention.
# Single-dose toxicities of the 2-hydroxybenzoic acid derivatives were evaluated.
# [6] = system: TNF-α production in BV2 cell line; assay: Suppressing effect on production of cytokine (ELISA), TNF-α; assay type: cell-based; details: LPS + 100 uM of sample, 24 hours; for inhibition at 100 µM: Mus musculus, BV-2, level in medium; for TNF-α % Inhibition: level in medium, 100 µM
# Protocol: (§2) Effects of the 2-hydroxybenzoic acid derivatives on production of cytokine in BV2 cell line were evaluated. 24-well plate was inoculated with 1×10^6 cells of BV2 cell line, and treated with both LPS, inflammation-inducing material, and 100 uM of sample (the 2-hydroxybenzoic acid derivative or comparative drug), together. After 24 hours of incubation, culture medium was collected. The levels of cytokines, TNF-α and IL-6, in the medium were evaluated by ELISA method.
# [7] = system: IL-6 production in BV2 cell line; assay: Suppressing effect on production of cytokine (ELISA), IL-6; assay type: cell-based; details: LPS + 100 uM of sample, 24 hours; for inhibition at 100 µM: Mus musculus, BV-2, level in medium; for IL-6 % Inhibition: level in medium
# Protocol: as §2
# DSS-induced colitis = assay: 5% dextran sulfate sodium (DSS) inflammatory intestinal disease model; assay type: in vivo, mouse; details: vs DSS only; compound 18 25 mg/kg oral
# Protocol: FIG. 17 is results showing efficacy through 5% dextran sulfate sodium (DSS) model, inflammatory intestinal disease animal model. After treatment of DSS, 10, 25 or 50 mg/kg of compound 18 suspended in 10% vehicle was orally administered. Sham means colon of normal mouse, DSS means colon mouse treated with 5% DSS. The others are pictures of colon of mice administered with compound 18 at indicated dose.
# FIG. 20 is an efficacy test result of compound 18 using DSS. After treatment of DSS, compound 18 (25 mg/kg) suspended in 10% vehicle was orally administered. After that, bloody excrement by colon injury, diarrhea and the degree of dirtiness were evaluated as feces score.
# 5% dextran sulfate sodium (DSS) model was used as inflammatory intestinal disease animal model. 5% DSS mixed with water was orally administered. 5% DSS model causes damage to epithelial cell, and ulcer in left colon and the decrease of colon length are mainly observed in the model. This model is simple and reproductive, and can regulate the degree of inflammation according to dose. Therefore, this model is often used for evaluating drug candidates.
# DSS is continuously administered in water bottle. The 2-hydroxybenzoic acid derivative was suspended in 10% vehicle, and orally administered.
# MPO (myeloperoxidase) = details: cited from earlier work; for activity of MPO: in vivo
structure (smiles),measurement,setting,value
"O=C(O)c1cc(NCCc2ccccc2)ccc1O [compound 1, 2-hydroxy-5-phenethylamino-benzoic acid]",IC50,BV2 microglia cell line,183 µM
"COc1ccc(CCNc2ccc(O)c(C(=O)O)c2)cc1 [compound 11, 2-hydroxy-5-[2-(4-methoxy-phenyl)-ethylamino]-benzoic acid]",IC50,BV2 microglia cell line,132 µM
same,arthritic index,[1]; 50 mg/kg/day intraperitoneal,apparent reducing effect
"Cc1ccccc1CCNc1ccc(O)c(C(=O)O)c1 [compound 12, 2-hydroxy-5-(2-o-tolyl-ethylamino)-benzoic acid]",inhibition at 100 µM,[2],43.7%
same,inhibition at 100 µM,[3],41.8%
"O=C(O)c1cc(NCCCc2ccc(C(F)(F)F)cc2)ccc1O [compound 14, 2-hydroxy-5-[3-(4-trifluoromethyl-phenyl)-propylamino]-benzoic acid]",inhibition at 100 µM,[4],38.9%
same,"single-dose toxicity, finding in words",[5]; single dose,high toxicity or dose-independent toxicity
same,inhibition at 100 µM,[2],44.3%
same,inhibition at 100 µM,[6],62.6%
"O=C(O)c1cc(NCCc2ccc(C(F)(F)F)cc2F)ccc1O [compound 10, 5-[2-(2-fluoro-4-trifluoromethyl-phenyl)-ethylamino]-2-hydroxy-benzoic acid]",IC50,BV2 microglia cell line,20.7 µM
"O=C(O)c1cc(NCCc2ccccc2Cl)ccc1O [compound 19, 5-[2-(2-chloro-phenyl)-ethylamino]-2-hydroxy-benzoic acid]",LD50,"[5]; mouse, in vivo, single dose",500 to 1000 mg/kg
"O=C(O)c1cc(NCCc2ccc(Cl)cc2)ccc1O [compound 6, 5-[2-(4-chloro-phenyl)-ethylamino]-2-hydroxy-benzoic acid]",arthritic index,[1]; 50 mg/kg/day intraperitoneal,apparent reducing effect
"O=C(O)c1cc(NCCc2cccc(C(F)(F)F)c2)ccc1O [compound 3, 2-hydroxy-5-[2-(3-trifluoromethyl-phenyl)-ethylamino]-benzoic acid]",inhibition at 100 µM,[7],33.1%
same,"single-dose toxicity, finding in words",[5]; single dose,high toxicity or dose-independent toxicity
same,inhibition at 100 µM,[6],31.9%
same,arthritic index,[1]; 25 mg/kg/day intraperitoneal,apparent reducing effect
"O=C(O)c1cc(NCCc2ccc(F)cc2C(F)(F)F)ccc1O [compound 9, 5-[2-(4-fluoro-2-trifluoromethyl-phenyl)-ethylamino]-2-hydroxy-benzoic acid]",inhibition at 100 µM,[4],61.7%
same,% Inhibition (in 100 uM) TNF-alpha,[4],61.7%
same,inhibition at 100 µM,[2],17.8%
same,IC50,BV2 microglia cell line,1.79 µM
"O=C(O)c1cc(/N=N/c2ccc(S(=O)(=O)Nc3ccccn3)cc2)ccc1O [sulfasalazine, reference compound]","feces score (bloody excrement, diarrhea, dirtiness)",DSS-induced colitis,significantly decreased feces score
same,activity of MPO,MPO (myeloperoxidase),decreased the activity of MPO
"O=C(O)c1cc(NCCCc2ccccc2)ccc1O [compound 13, 2-hydroxy-5-(3-phenyl-propylamino)-benzoic acid]",inhibition at 100 µM,[4],43%
same,inhibition at 100 µM,[2],15.5%
CC(c1cc2ccccc2s1)N(O)C(N)=O (stereo not shown) [Zileuton],activity of MPO,MPO (myeloperoxidase),decreased the activity of MPO
"CC(=O)Oc1ccccc1C(=O)O [Aspirin, acetylsalicylic acid, reference compound]",inhibition at 100 µM,[7],22.2%
same,IL-6 % Inhibition,[7],little reduced
same,TNF-α % Inhibition,[6],No effect
same,TNF-α % Inhibition,[6]; listed as aspirin,did not showing reducing effect
"O=C(O)c1cc(NCCCc2ccc(F)cc2)ccc1O [compound 15, 5-[3-(4-fluoro-phenyl)-propylamino]-2-hydroxy-benzoic acid]",inhibition at 100 µM,[4],37.4%
same,inhibition at 100 µM,[3],35.1%
"O=C(O)c1cc(NCCc2ccc(Cl)c(Cl)c2)ccc1O [compound 8, 5-[2-(3,4-dichloro-phenyl)-ethylamino]-2-hydroxy-benzoic acid]",inhibition at 100 µM,[4],77%
same,% Inhibition (in 100 uM) TNF-alpha,[4],77.1%
same,inhibition at 100 µM,[3],> 50%
"CC(C)Cc1ccc(C(C)C(=O)O)cc1 (stereo not shown) [Ibuprofen, reference compound]",IL-6 % Inhibition,[7]; 100 µM,No effect
same,IL-6 % Inhibition,"[7]; listed as ibuprofen, 100 µM",little reduced
same,TNF-α % Inhibition,[6],No effect
same,TNF-α % Inhibition,[6]; listed as ibuprofen,did not showing reducing effect
"O=C(O)c1cc(NCCc2ccccc2[N+](=O)[O-])ccc1O [compound 5, 2-hydroxy-5-[2-(2-nitro-phenyl)-ethylamino]-benzoic acid]",inhibition at 100 µM,[4],38.7%
same,inhibition at 100 µM,[3],67.7%
CS(=O)(=O)Nc1ccc([N+](=O)[O-])cc1Oc1ccccc1 [nimesulide],protective effect in intestinal damage animal models,MPO (myeloperoxidase); acetic acid-induced IBD and LTB4-induced IBD,showed protective effect
same,activity of MPO,MPO (myeloperoxidase),excessively suppressed the activity of MPO
"O=C(O)c1cc(NCCc2cc(C(F)(F)F)cc(C(F)(F)F)c2)ccc1O [compound 4, 5-[2-(3,5-bis-trifluoromethyl-phenyl)-ethylamino]-2-hydroxy-benzoic acid]","single-dose toxicity, finding in words","[5]; mouse, in vivo",caused sudden death of mouse at 3 g/kg
same,inhibition at 100 µM,[6],18.7%
same,IC50,BV2 microglia cell line,6.25 µM
"Cc1ccc(CCCNc2ccc(O)c(C(=O)O)c2)cc1 [compound 17, 2-hydroxy-5-(3-p-tolyl-propylamino)-benzoic acid]",inhibition at 100 µM,[4],20.8%
